Consider 30 compounds from US8129377B2, “6-(pyridinyl)-4-pyrimidone derivates as tau protein kinase 1 inhibitors” (Mitsubishi Tanabe Pharma Corporation, priority 2004, dated 2012).

For this assay, the target named is T1, bovine cerebral TPK1 (Bos taurus, UniProt A0A3Q1MT31).
T1 construct: from tissue; host or cells: bovine brain (cerebrum)
The experiment in a line: Inhibitory activity against P-GS1 phosphorylation by bovine cerebral TPK1. The format is biochemical. As to conditions: 41.7 μM [γ-32P] ATP, 25° C., 2 hours. As for the experimental part: Experiment 1: Inhibitory Activity of the Medicament of the Present Invention Against P-GS1 Phosphorylation by Bovine Cerebral TPK1
A mixture containing 100 mM MES-sodium hydroxide (pH 6.5), 1 mM magnesium acetate, 0.5 mM EGTA, 5 mM β-mercaptoethanol, 0.02% Tween 20, 10% glycerol, 12 μg/ml P-GS1, 41.7 μM [γ^−32P] ATP (68 kBq/ml), bovine cerebral TPK1 and a compound shown in Table (a final mixture contained 1.7% DMSO deriving from a solution of a test compound prepared in the presence of 10% DMSO) was used as a reaction system. The phosphorylation was started by adding ATP, and the reaction was conducted at 25° C. for 2 hours, and then stopped by adding 21% perchloric acid on ice cooling. The reaction mixture was centrifuged at 12,000 rpm for 5 minutes and adsorbed on P81 paper (Whatmann), and then the paper was washed four times with 75 mM phosphoric acid, three times with water and once with acetone. The paper was dried, and the residual radioactivity was measured using a liquid scintillation counter.

The IC50 is the concentration that inhibits the measured activity by half.

T1 sequence (A0A3Q1MT31 1-419): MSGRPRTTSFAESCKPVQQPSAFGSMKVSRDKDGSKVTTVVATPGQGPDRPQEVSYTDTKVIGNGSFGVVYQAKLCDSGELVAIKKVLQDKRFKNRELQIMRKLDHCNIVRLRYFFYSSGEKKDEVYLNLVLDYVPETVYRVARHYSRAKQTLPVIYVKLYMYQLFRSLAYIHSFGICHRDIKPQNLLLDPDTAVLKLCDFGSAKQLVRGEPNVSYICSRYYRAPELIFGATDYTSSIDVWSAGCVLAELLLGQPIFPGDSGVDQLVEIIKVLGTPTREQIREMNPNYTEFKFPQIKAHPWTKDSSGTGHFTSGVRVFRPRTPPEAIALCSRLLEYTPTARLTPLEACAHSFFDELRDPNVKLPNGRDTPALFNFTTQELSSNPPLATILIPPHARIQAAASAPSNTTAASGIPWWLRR

As to `COc1ccc(NC(C)=O)cc1[C@H]1CN(c2nc(-c3ccncc3F)cc(=O)n2C)CCO1` [compound 313], the concentration for half-maximal inhibition (IC50) came to 0.48 nM.
With `Cn1c(N2CCO[C@@H](c3ccc(NC(=O)C(C)(C)C)cc3)C2)nc(-c2ccncc2F)cc1=O` [compound 215], inhibition was half-maximal at 4.2 nM (IC50).
Regarding `CN(c1ccc([C@H]2CN(c3nc(-c4ccncc4F)cc(=O)n3C)CCO2)cc1)[C@@H]1CCOC1` [compound 221, 6-(3-Fluoropyridin-4-yl)-2-((2S)-2-(4-(N-methyl-N-((3R)-tetrahydrofuran-3yl)amino)phenyl)morpholin-4-yl)-3-methyl-3H-pyrimidin-4-one], half-maximal inhibition (IC50) was put at 3.9 nM. The IC50 values of the last two compounds are within 1.5-fold of each other.
The compound `Cn1c(N2CCO[C@@H](c3ccc(NC(=O)C4CCCCC4)cc3)C2)nc(-c2ccncc2F)cc1=O` [compound 209] returned an IC50 of 2.2 nM. Compared with the last compound, the IC50 is about 1.8-fold lower.
With `COc1ccc(-c2ccc([C@H]3CN(c4nc(-c5ccncc5F)cc(=O)n4C)CCN3)cc2)cc1` [compound 41], the IC50 came to 0.73 nM.
Turning to `COc1cc(Cl)ccc1[C@H]1CN(c2nc(-c3ccncc3Cl)cc(=O)n2C)CCO1` [compound 247], half-maximal inhibition (IC50) was put at 13 nM.
Under `Cn1c(N2CCN[C@@H](c3ccc(N4CCN(c5ccccc5)CC4)cc3)C2)nc(-c2ccncc2F)cc1=O` [compound 22] stands 0.53 nM; under `Cn1c(N2CCO[C@@H](c3cc4ccccc4o3)C2)nc(-c2ccncc2F)cc1=O` [compound 4], 7.9 nM; under `Cn1c(N2CCO[C@@H](c3ccc(N4CCC(N5CCCC5)CC4)cc3)C2)nc(-c2ccncc2F)cc1=O` [compound 17], 1.7 nM.
`Cn1c(N2CCOC(c3ccc4c(c3)CCC(=O)N4)C2)nc(-c2ccncc2F)cc1=O` (stereo not drawn) [compound 305]: inhibition was half-maximal at 1.2 nM (IC50).
In turn, `Cn1c(N2CCO[C@@H](c3ccc(C(=O)N4CCOCC4)cc3)C2)nc(-c2ccncc2F)cc1=O` [compound 310] displayed an IC50 of 7.4 nM.
In the case of `Cc1nc(-c2ccc([C@H]3CN(c4nc(-c5ccncc5F)cc(=O)n4C)CCN3)cc2)no1` [compound 334, 6-(3-Fluoropyridin-4-yl)-3-methyl-2-((3S)-3-(4-(5-methyl-[1,2,4]oxadiazol-3-yl)phenyl)piperazin-1-yl)-3H-pyrimidin-4-one], the IC50 is 2.9 nM.
`CC(=O)N1CCC(Oc2ccc([C@H]3CN(c4nc(-c5ccncc5F)cc(=O)n4C)CCO3)cc2)CC1` [compound 238, 2-((2S)-2-(4-(1-Acetylpiperidin-4-yloxy)phenyl)morpholin-4-yl)-6-(3-fluoropyridin-4-yl)-3-methyl-pyrimidin-4-one] gave a 50% inhibitory concentration (IC50) of 6.4 nM.
Under `CN(C)C(=O)Nc1ccc([C@H]2CN(c3nc(-c4ccncc4F)cc(=O)n3C)CCO2)cc1` [compound 298, N′-(4-((2S)-4-(6-(3-Fluoropyridin-4-yl)-3-methyl-4-oxo-3H-pyrimidin-2-yl)morpholin-2-yl)phenyl)-N,N-dimethylurea] stands 11 nM; under `CN(C)CC(=O)Nc1ccc([C@H]2CN(c3nc(-c4ccncc4F)cc(=O)n3C)CCO2)cc1` [compound 288, N^2,N^2-Dimethyl-N^1-(4-((2S)-4-(3-methyl-4-oxo-3,4-dihydro-6-(3-fluoropyridin-4-yl)pyrimidin-2-yl)morpholin-2-yl)phenyl)glycinamide], 0.27 nM; under `Cn1c(N2CCC[C@H](c3ccc(Br)cc3)C2)nc(-c2ccncc2F)cc1=O` [compound 303, 2-((3R)-3-(4-Bromophenyl)piperidin-1-yl)-6-(3-fluoropyridin-4-yl)-3-methyl-3H-pyrimidine-4-one], 6.2 nM.
For `Cn1c(N2CCO[C@@H](c3c(F)cccc3Cl)C2)nc(-c2ccncc2F)cc1=O` [compound 5], the IC50 came out at 1.4 nM.
The same measure for `Cn1c(N2CCC(c3ccc(N4CCCC4)cc3)CC2)nc(-c2ccncc2F)cc1=O` [compound 56]: 6.4 nM.
For the compound `CC(=O)Nc1cccc([C@H]2CN(c3nc(-c4ccncc4F)cc(=O)n3C)CCO2)c1` [compound 314], the IC50 was 4.1 nM.
For the compound `Cn1c(N2CCO[C@@H](c3ccc(OCCN4CCOCC4)cc3)C2)nc(-c2ccncc2F)cc1=O` [compound 224], the IC50 was determined as 1.1 nM.
`CC(C)Oc1ccc(-c2ccc([C@H]3CN(c4nc(-c5ccncc5F)cc(=O)n4C)CCN3)cc2)cc1` [compound 92] had an IC50 of 1.2 nM.
The same measure for `Cc1cc(C2CN(c3nc(-c4ccncc4F)cc(=O)n3C)CCO2)ccc1Br` (stereo not drawn) [compound 210]: 0.51 nM.
Under `COC(=O)Nc1ccc([C@H]2CN(c3nc(-c4ccncc4F)cc(=O)n3C)CCO2)cc1` [compound 295, Methyl (4-((2S)-4-(6-(3-fluoropyridin-4-yl)-3-methyl-4-oxo-3H-pyrimidin-2-yl)morpholin-2-yl)phenyl)carbamate] stands 1.2 nM; under `CNc1cc(-c2cc(=O)n(C)c(N3CCO[C@@H](c4cc(C#N)ccc4OC)C3)n2)ccn1` [compound 196], 13 nM.
Regarding `Cn1c(N2CCO[C@@H](c3ccc(N)cc3)C2)nc(-c2ccncc2F)cc1=O` [compound 158, 2-((2S)-2-(4-Aminophenyl)morpholin-4-yl)-6-(3-fluoropyridin-4-yl)-3-methyl-3H-pyrimidin-4-one], the IC50 is 2.9 nM.
In the case of `CN(c1ccc([C@H]2CN(c3nc(-c4ccncc4F)cc(=O)n3C)CCO2)cc1)c1ccccn1` [compound 212], the IC50 is 5.4 nM.
Compound `Cn1c(N2CCN[C@@H](c3ccc(-c4ncon4)cc3)C2)nc(-c2ccncc2F)cc1=O` [compound 322, 6-(3-Fluoropyridin-4-yl)-3-methyl-2-((3S)-3-(4-([1,2,4]oxadiazol-3-yl)phenyl)piperazin-1-yl)-3H-pyrimidin-4-one] showed a 50% inhibitory concentration (IC50) of 4.8 nM.
Compound `Cn1c(N2CCO[C@@H](c3ccc(N[C@@H]4CCOC4)cc3)C2)nc(-c2ccncc2F)cc1=O` [compound 220, 2-((2S)-2-(4-(N-((3R)-Tetrahydrofuran-3-yl)amino)phenyl)morpholin-4-yl)-3-methyl-6-(3-fluoropyridin-4-yl)-3H-pyrimidin-4-one] returned an IC50 of 2.7 nM.
Regarding `Cn1c(N2CCC(Nc3cccc(C(F)(F)F)c3)CC2)nc(-c2ccncc2F)cc1=O` [compound 105], the midpoint of inhibition, the IC50, lay at 8.2 nM. This IC50 lies about 3-fold higher than the previous one.
On to `Cn1c(N2CCN[C@@H](c3ccc(N4CCCCC4)cc3)C2)nc(-c2ccncc2F)cc1=O` [compound 14, 6-(3-Fluoro-pyridin-4-yl)-3-methyl-2-((3S)-3-(4-piperidin-1-yl-phenyl)-piperazin-1-yl)-3H-pyrimidin-4-one], for which the midpoint of inhibition, the IC50, lay at 3.7 nM.
